Measured values: the supplement of paper PMC11061612

Assays:
[1] = test system: UACC-62 (Melanoma); experiment: combination Emax (second highest fraction inhibited in the dose matrix, 72 h); higher = more inhibition; extreme values may be limits of the assay
In short: (§1)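 Bliss excess equals the observed combination effect minus the expected value EA + EB − EA·EB, where EA and EB are the effects of each agent alone. Combination Emax is the second-highest inhibition within the matrix. Inhibition was scaled from CellTiter-Glo 2.0 luminescence, with 0 set by vehicle wells and 1 by blank wells, after 72 hours of two-drug dosing of cells plated in 1536-well plates.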

[2] = test system: PWR-1E (Non-Cancerous); experiment: Bliss excess, mean over the matrix (fraction); higher = more synergy
In short: as §1

[3] = test system: RF-48 (B-Cell Non-Hodgkin's Lymphoma); experiment: as above
In short: as §1

[4] = test system: HGC-27 (Gastric Carcinoma); experiment: as above
In short: as §1

[5] = test system: EFM-19 (Breast Carcinoma); experiment: as above
In short: as §1

[6] = test system: HOP-62 (Lung Adenocarcinoma); experiment: as above
In short: as §1

[7] = test system: KMOE-2 (Acute Myeloid Leukemia); experiment: as above
In short: as §1

[8] = test system: NB69 (Neuroblastoma); experiment: as above
In short: as §1

[9] = test system: MIA-PaCa-2 (Pancreatic Carcinoma); experiment: as above
In short: as §1

[10] = test system: Ca9-22 (Head and Neck Carcinoma); experiment: as above
In short: as §1

[11] = test system: BT-549 (Breast Carcinoma); experiment: as above
In short: as §1

[12] = test system: NCI-H727 (Other Solid Carcinomas); experiment: as above
In short: as §1

[13] = test system: NCI-H358 (Lung Adenocarcinoma); experiment: as above
In short: as §1

[14] = test system: OE19 (Esophageal Adenocarcinoma); experiment: as above
In short: as §1

[15] = test system: SU8686 (Pancreatic Carcinoma); experiment: as above
In short: as §1

[16] = test system: TK10 (Kidney Carcinoma); experiment: as above
In short: as §1

[17] = test system: KARPAS-299 (T-Cell Non-Hodgkin's Lymphoma); experiment: as above
In short: as §1

[18] = test system: KYSE-450 (Esophageal Squamous Cell Carcinoma); experiment: as above
In short: as §1

[19] = test system: EW-24 (Ewing's Sarcoma); experiment: as above
In short: as §1

[20] = test system: SW13 (Other Solid Carcinomas); experiment: as above
In short: as §1

SMILES | combination Emax [1] | Bliss excess [2] | Bliss excess [3] | Bliss excess [4] | Bliss excess [5] | Bliss excess [6] | Bliss excess [7] | Bliss excess [8] | Bliss excess [9] | Bliss excess [10] | Bliss excess [11] | Bliss excess [12] | Bliss excess [13] | Bliss excess [14] | Bliss excess [15] | Bliss excess [16] | Bliss excess [17] | Bliss excess [18] | Bliss excess [19] | Bliss excess [20]
Cc1c2c(nn1C)CSCc1cc(n(C)n1)CSc1cc(c3ccccc3c1)OCCCc1c(C(=O)O)n(C)c3c-2c(Cl)ccc13 [AZD5991] + C1CN(CCC1(C(=O)N[C@@H](CCO)C2=CC=C(C=C2)Cl)N)C3=NC=NC4=C3C=CN4 [Capivasertib] (first compound max 1 µM, 7x7, partner max 3 µM) | 0.934 | -0.0077 | 0.0285 | 0.0232 | 0.0003 | -0.0422 | -0.002 | -0.0071 | 0.0125 | -0.0261 | 0.0274 | 0.0322 | -0.0179 | -0.0273 | -0.0177 | -0.031 | 0.0078 | -0.009 | 0.0392 | 0.0419
CC1(C)CCC(CN2CCN(c3ccc(C(=O)NS(=O)(=O)c4ccc(NCC5CCOCC5)c([N+](=O)[O-])c4)c(Oc4cnc5[nH]ccc5c4)c3)CC2)=C(c2ccc(Cl)cc2)C1 [Venetoclax] + C=CCn1c(=O)c2cnc(Nc3ccc(N4CCN(C)CC4)cc3)nc2n1-c1cccc(C(C)(C)O)n1 [AZD1775] (first compound max 1 µM, partner max 1 µM) | 0.578 | -0.0347 | 0.0016 | -0.0252 | -0.0335 | -0.0635 | -0.0226 | -0.282 | 0.0944 | 0.0384 | -0.0152 | 0.0475 | 0.0042 | -0.0932 | -0.0317 | -0.0444 | 0.008 | -0.0642 | 0.0351 | 0.0496
NC1(C(=O)N[C@@H](CCO)c2ccc(Cl)cc2)CCN(c2ncnc3[nH]ccc23)CC1 [Capivasertib] + CCN(CCO)CCCOc1ccc2c(Nc3cc(CC(=O)Nc4cccc(F)c4)[nH]n3)ncnc2c1 [AZD2811] (first compound max 10 µM, 7x7, partner max 1 µM) | 0.556 | -0.0124 | -0.0019 | -0.0167 | -0.0084 | 0.0196 | -0.0154 | -0.0339 | 0.0031 | 0.0117 | -0.0197 | -0.0058 | -0.0521 | -0.0513 | -0.0212 | -0.0434 | 0.029 | 0.0066 | -0.0029 | -0.0397
CS(=O)(=O)CCNCc1ccc(-c2ccc3ncnc(Nc4ccc(OCc5cccc(F)c5)c(Cl)c4)c3c2)o1 [Lapatinib] + C[C@@H](Oc1cc(-c2cnn(C3CCNCC3)c2)cnc1N)c1c(Cl)ccc(F)c1Cl [Crizotinib] (first compound max 10 µM, 7x7, partner max 10 µM) | 0.66 | -0.0184 | -0.0441 | -0.0903 | -0.0109 | -0.0466 | 0.0174 | -0.0592 | -0.0517 | -0.0383 | -0.0916 | -0.0097 | -0.0522 | -0.007 | -0.0299 | -0.0655 | 0.0532 | -0.0486 | -0.0105 | -0.0291
CC1(C)CCC(CN2CCN(c3ccc(C(=O)NS(=O)(=O)c4ccc(NCC5CCOCC5)c([N+](=O)[O-])c4)c(Oc4cnc5[nH]ccc5c4)c3)CC2)=C(c2ccc(Cl)cc2)C1 [Venetoclax] + Cc1cc2ncnn2cc1Nc1ncc2c(n1)n(C1CCOCC1)c(=O)n2C [AZD7648] (first compound max 1 µM, 7x7, partner max 10 µM) | 0.221 | -0.0152 | -0.0106 | -0.0261 | -0.0469 | -0.0711 | -0.0596 | 0.0069 | -0.0218 | -0.0241 | -0.0328 | -0.0634 | -0.0207 | -0.0253 | -0.0195 | -0.102 | 0.0487 | -0.0515 | -0.0699 | 0.0127
CC1(C)CCC(CN2CCN(c3ccc(C(=O)NS(=O)(=O)c4ccc(NCC5CCOCC5)c([N+](=O)[O-])c4)c(Oc4cnc5[nH]ccc5c4)c3)CC2)=C(c2ccc(Cl)cc2)C1 [Venetoclax] + C1CN(CCC1(C(=O)N[C@@H](CCO)C2=CC=C(C=C2)Cl)N)C3=NC=NC4=C3C=CN4 [Capivasertib] (first compound max 1 µM, 7x7, partner max 3 µM) | 0.392 | -0.0161 | 0.0226 | -0.0002 | -0.0925 | -0.0565 | 0.0121 | 0.0242 | -0.0384 | -0.0171 | -0.0385 | -0.0539 | -0.0591 | -0.016 | -0.0379 | -0.0574 | -0.0004 | -0.0296 | -0.0113 | -0.0238
CC(=O)Nc1cccc(-n2c(=O)n(C3CC3)c(=O)c3c(Nc4ccc(I)cc4F)n(C)c(=O)c(C)c32)c1 [Trametinib] + Cc1nc(-c2cn3c(n2)-c2ccc(-c4cnn(C(C)(C)C(N)=O)c4)cc2OCC3)n(C(C)C)n1 [Taselisib] (first compound max 1 µM, 7x7, partner max 10 µM) | 0.996 | 0.121 | 0.0627 | -0.062 | -0.0544 | 0.0978 | 0.066 | 0.0304 | 0.148 | 0.131 | 0.0203 | -0.0129 | 0.095 | 0.158 | 0.094 | 0.0739 | 0.25 | 0.11 | 0.0141 | 0.316
NC1(C(=O)N[C@@H](CCO)c2ccc(Cl)cc2)CCN(c2ncnc3[nH]ccc23)CC1 [Capivasertib] + CC(=O)c1c(C)c2cnc(Nc3ccc(N4CCNCC4)cn3)nc2n(C2CCCC2)c1=O [Palbociclib] (first compound max 10 µM, 7x7, partner max 10 µM) | 0.492 | -0.017 | -0.0186 | -0.0085 | -0.0107 | -0.04 | -0.0566 | -0.009 | 0.0767 | 0.0171 | -0.0064 | -0.0139 | -0.0373 | -0.0854 | -0.0465 | -0.0106 | 0.0205 | 0.0133 | 0.0087 | -0.0236
Cc1c2c(nn1C)CSCc1cc(n(C)n1)CSc1cc(c3ccccc3c1)OCCCc1c(C(=O)O)n(C)c3c-2c(Cl)ccc13 [AZD5991] + Cc1cc2ncnn2cc1Nc1ncc2c(n1)n(C1CCOCC1)c(=O)n2C [AZD7648] (first compound max 1 µM, 7x7, partner max 10 µM) | 0.859 | -0.0363 | -0.0115 | -0.0131 | -0.0215 | -0.0758 | -0.0085 | -0.0009 | -0.0385 | 0.0048 | -0.0523 | -0.0833 | -0.0836 | -0.0645 | -0.0366 | -0.0327 | -0.0066 | -0.0321 | -0.035 | 0.0165
CC1(C)CCC(CN2CCN(c3ccc(C(=O)NS(=O)(=O)c4ccc(NCC5CCOCC5)c([N+](=O)[O-])c4)c(Oc4cnc5[nH]ccc5c4)c3)CC2)=C(c2ccc(Cl)cc2)C1 [Venetoclax] + Cn1cnc2c(F)c(Nc3ccc(Br)cc3Cl)c(C(=O)NOCCO)cc21 [Selumetinib] (first compound max 1 µM, 7x7, partner max 3 µM) | 0.767 | -0.0327 | -0.0034 | -0.0178 | -0.0607 | -0.0155 | -0.0168 | 0.0179 | -0.0073 | 0.0054 | -0.0691 | -0.0534 | -0.024 | -0.0484 | -0.0792 | -0.109 | -0.0102 | -0.0432 | -0.0463 | 0.0137
COc1cccc(OCCCN)c1-c1cc(Nc2cnc(C#N)cn2)n[nH]1 [Prexasertib] + O=C(c1cc(Cc2n[nH]c(=O)c3ccccc23)ccc1F)N1CCN(C(=O)C2CC2)CC1 [Olaparib] (first compound max 1 µM, 7x7, partner max 10 µM) | 0.743 | -0.211 | -0.0216 | 0.044 | -0.0094 | -0.0319 | 0.0279 | -0.0313 | -0.0781 | -0.007 | 0.0195 | -0.259 | -0.0809 | -0.125 | -0.0504 | -0.0975 | -0.0318 | -0.025 | -0.0292 | 0.0024
CC1(C)CCC(CN2CCN(c3ccc(C(=O)NS(=O)(=O)c4ccc(NCC5CCOCC5)c([N+](=O)[O-])c4)c(Oc4cnc5[nH]ccc5c4)c3)CC2)=C(c2ccc(Cl)cc2)C1 [Venetoclax] + COc1cc(Nc2ncc3c(n2)-c2ccc(Cl)cc2C(c2c(F)cccc2OC)=NC3)ccc1C(=O)O [Alisertib] (first compound max 1 µM, 7x7, partner max 10 µM) | 0.314 | -0.0103 | 0.194 | 0.0133 | -0.0049 | -0.0381 | 0.0304 | 0.0765 | -0.0131 | -0.0147 | 0.0371 | -0.0707 | 0.0186 | -0.059 | -0.0438 | -0.0694 | 0.134 | 0.007 | 0.0205 | 0.0421
CN(C)CCCOc1ccc(-c2ccc3ncc4c(c3c2)n(C2CCOCC2)c(=O)n4C)cn1 [AZD0156] + C[C@@H]1COCCN1C2=NC(=NC(=C2)C3(CC3)[S@](=N)(=O)C)C4=C5C=CNC5=NC=C4 [AZD6738] (first compound max 1 µM, 7x7, partner max 10 µM) | 0.555 | -0.0357 | 0.0487 | 0.0357 | -0.0264 | -0.0232 | -0.0252 | -0.069 | -0.0055 | 0.0218 | -0.0042 | 0.0226 | 0.0219 | 0.0277 | 0.0025 | 0.001 | -0.0283 | -0.0099 | -0.0225 | 0.0112
Cc1c2c(nn1C)CSCc1cc(n(C)n1)CSc1cc(c3ccccc3c1)OCCCc1c(C(=O)O)n(C)c3c-2c(Cl)ccc13 [AZD5991] + CC1(C)CCC(CN2CCN(c3ccc(C(=O)NS(=O)(=O)c4ccc(NCC5CCOCC5)c([N+](=O)[O-])c4)c(Oc4cnc5[nH]ccc5c4)c3)CC2)=C(c2ccc(Cl)cc2)C1 [Venetoclax] (first compound max 1 µM, 7x7, partner max 1 µM) | 0.962 | 0.0087 | 0.12 | 0.1 | 0.0055 | -0.0574 | 0.0141 | 0.136 | -0.023 | -0.006 | 0.0296 | -0.012 | -0.0289 | -0.0285 | -0.0391 | -0.0581 | 0.0445 | -0.0061 | -0.0224 | 0.0016
